# According to ChEMBL document CHEMBL5365456, “Isolation and biological activity of natural chalcones based on antibacterial mechanism classification” (Bioorg Med Chem, 2023):
# Experiments:
# [1] = Inhibition of Staphylococcus aureus IFO 3007 membrane NADH oxidase by absorbance based assay; type: cell membranes
# Staphylococcus aureus [2] = experiment: Antibacterial activity against Staphylococcus aureus IFO 3007 assessed bacterial growth inhibition by two-fold serial broth dilution method; type: functional
# Bacillus subtilis = experiment: Antibacterial activity against Bacillus subtilis IFO 3060 assessed bacterial growth inhibition by two-fold serial broth dilution method; type: functional
# Micrococcus luteus = experiment: Antibacterial activity against Micrococcus luteus IFO 3333 assessed bacterial growth inhibition by two-fold serial broth dilution method; type: functional
# Escherichia coli [3] = experiment: Antibacterial activity against Escherichia coli HUT 215 assessed bacterial growth inhibition by two-fold serial broth dilution method; type: functional
# Pseudomonas aeruginosa = experiment: Antibacterial activity against Pseudomonas aeruginosa JCM 2776 assessed bacterial growth inhibition by two-fold serial broth dilution method; type: functional
# [4] = Inhibition of Micrococcus luteus IFO 3333 membrane NADH oxidase by absorbance based assay; type: cell membranes
# [5] = Inhibition of Escherichia coli HUT 215 membrane NADH oxidase by absorbance based assay; type: cell membranes
# [6] = Inhibition of Pseudomonas aeruginosa JCM 2776 membrane NADH oxidase by absorbance based assay; type: cell membranes
# [7] = Inhibition of Micrococcus luteus IFO 3333 membrane NADH-cytochrome c reductase by absorbance based assay; type: cell membranes
# Staphylococcus aureus [8] = experiment: Antibacterial activity against Staphylococcus aureus MSSA1 assessed bacterial growth inhibition by CLSI-based broth microdilution method; type: functional
# [9] = Haemolytic activity in rabbit Erythrocyte infected with Staphylococcus aureus ATCC 29213 assessed as inhibition of alpha-toxin production at 0.125 ug/ml incubated for 20 mins; type: toxicity, cell-based, Oryctolagus cuniculus; conditions: at 0.125 µg/mL
# [10] = Haemolytic activity in rabbit Erythrocyte infected with Staphylococcus aureus ATCC 10832 assessed as inhibition of alpha-toxin production at 0.125 ug/ml incubated for 20 mins; type: toxicity, cell-based, Oryctolagus cuniculus; conditions: at 0.125 µg/mL
# Staphylococcus aureus [11] = experiment: Antibacterial activity against Staphylococcus aureus ATCC 29213 assessed as bacterial growth inhibition incubated for 24 hrs by CLSI-based broth microdilution assay; type: functional
# Staphylococcus aureus [12] = experiment: Antibacterial activity against Staphylococcus aureus ATCC 10832 assessed as bacterial growth inhibition incubated for 24 hrs by CLSI-based broth microdilution assay; type: functional
# [13] = Inhibition of FAS2 in Mycobacterium smegmatis mc2 155 transfected with pVV16 vector by BCA assay; set-up: species or system Mycolicibacterium smegmatis
# [14] = Inhibition of FAS2 in Mycobacterium smegmatis mc2 155 transfected with pVV16 vector expressing Rv0636 by BCA assay; set-up: species or system Mycolicibacterium smegmatis
# [15] = Inhibition of His-tagged Escherichia coli ANS1 FabG using acetoacetyl-CoA as substrate by spectrometric analysis
# [16] = Inhibition of His-tagged Escherichia coli ANS1 Fab1 using trans-2-octanoyl-N-acetylcysteamine as substrate by spectrometric analysis
# Escherichia coli [17] = experiment: Antibacterial activity against Escherichia coli ANS1 assessed as bacterial growth inhibition incubated for 20 hrs by broth microdilution method; type: functional
# Rhizomucor pusillus = experiment: Antibacterial activity against Rhizomucor pusillus HUT 1185 assessed bacterial growth inhibition by two-fold serial broth dilution method; type: functional
# Staphylococcus aureus [18] = experiment: Antibacterial activity against methicillin-Sensitive Staphylococcus aureus ATCC 29213 assessed as bacterial growth inhibition by CLSI-based broth microdilution method; type: functional
# Staphylococcus aureus [19] = experiment: Antibacterial activity against methicillin-Resistant Staphylococcus aureus 2985 assessed as bacterial growth inhibition by CLSI-based broth microdilution method; type: functional
# Candida albicans [20] = experiment: Antifungal activity against Candida albicans LAM-1 assessed as fungal growth inhibition incubated for 24 hrs; type: functional
# Candida albicans [21] = experiment: Antifungal activity against Candida albicans ATCC 28366 assessed as fungal growth inhibition incubated for 24 hrs; type: functional
# Candida albicans [22] = experiment: Inhibition of Candida albicans LAM-1 hyphal transition at 100 ug/ml incubated upto 4 hrs relative to control; type: functional
# Candida albicans [23] = experiment: Inhibition of Candida albicans ATCC 28366 hyphal transition at 100 ug/ml incubated upto 4 hrs relative to control; type: functional
# Staphylococcus aureus [24] = experiment: Antibacterial activity against Staphylococcus aureus ATCC 29213 assessed bacterial growth inhibition by CLSI-based broth microdilution method; type: functional
# [25] = Haemolytic activity in rabbit Erythrocyte infected with Staphylococcus aureus ATCC 29213 assessed as inhibition of alpha-toxin production at 2 ug/ml incubated for 15 mins; type: toxicity, cell-based, Oryctolagus cuniculus; conditions: 0.25 h, at 2 µg/mL
# [26] = Haemolytic activity in rabbit Erythrocyte infected with methicillin-Resistant Staphylococcus aureus 2985 assessed as inhibition of alpha-toxin production at 2 ug/ml incubated for 15 mins; type: toxicity, cell-based, Oryctolagus cuniculus; conditions: 0.25 h, at 2 µg/mL
# Streptococcus suis [27] = experiment: Antibacterial activity against Streptococcus suis 05ZYH33 assessed as bacterial growth inhibition incubated for 24 hrs; type: functional
# [28] = Hemolytic activity in human RBC infected with Streptococcus suis 05ZYH33 at 1.5 ug/ml measured after 1 hr by microplate reader method; type: toxicity, cell-based; conditions: erythrocyte, at 1.5 µg/mL
# [29] = Hemolytic activity in human RBC infected with Streptococcus suis 05ZYH33 at 2 ug/ml measured after 1 hr by microplate reader method; type: toxicity, cell-based; conditions: erythrocyte, at 2 µg/mL
# Candida albicans [30] = experiment: Antibiofilm activity against Candida albicans LAM-1 at 0.2 ug/ml incubated for 24 hrs by crystal violet staining based assay; type: functional
# Candida albicans [31] = experiment: Antibiofilm activity against Candida albicans LAM-1 at 2 ug/ml incubated for 24 hrs by crystal violet staining based assay relative to control; type: functional
# Candida albicans [32] = experiment: Antibiofilm activity against Candida albicans ATCC 28366 at 0.2 ug/ml incubated for 24 hrs by crystal violet staining based assay relative to control; type: functional
# Candida albicans [33] = experiment: Antibiofilm activity against Candida albicans ATCC 28366 at 2 ug/ml incubated for 24 hrs by crystal violet staining based assay relative to control; type: functional
# Streptococcus suis [34] = experiment: Antibiofilm activity against Streptococcus suis 05ZYH33 assessed as inhibition of biofilm formation at 3 ug/ml incubated for 18 to 24 hrs by crystal violet staining based assay relative to control; type: functional; conditions: time 18-24 hrs
# Streptococcus suis [35] = experiment: Antibiofilm activity against Streptococcus suis 05ZYH33 assessed as inhibition of biofilm formation at 4 ug/ml incubated for 18 to 24 hrs by crystal violet staining based assay relative to control; type: functional; conditions: time 18-24 hrs
# Staphylococcus aureus [36] = experiment: Antibacterial activity against Staphylococcus aureus ATCC 29213 assessed as bacterial growth inhibition incubated for 24 hrs by CLSI-based assay; type: functional
# Staphylococcus aureus [37] = experiment: Antibiofilm activity against Staphylococcus aureus ATCC 29213 at 16 ug/ml relative to control; type: functional
# Staphylococcus aureus [38] = experiment: Antibiofilm activity against Staphylococcus aureus ATCC 29213 at 128 ug/ml relative to control; type: functional
# Enterococcus faecalis [39] = experiment: Antibacterial activity against Enterococcus faecalis 16C51 assessed as bacterial growth inhibition by CLSI based broth microdilution assay; type: functional
# Enterococcus faecalis [40] = experiment: Antibacterial activity against Enterococcus faecalis 16C106 assessed as bacterial growth inhibition by CLSI based broth microdilution assay; type: functional
# Enterococcus faecalis [41] = experiment: Antibiofilm activity against Enterococcus faecalis 16C51 at 2.115 ug/ml incubated for 24 hrs by crystal violet staining based assay relative to control; type: functional
# Enterococcus faecalis [42] = experiment: Antibiofilm activity against Enterococcus faecalis 16C51 at 4.23 ug/ml incubated for 24 hrs by crystal violet staining based assay relative to control; type: functional
# Enterococcus faecalis [43] = experiment: Antibiofilm activity against Enterococcus faecalis 16C106 at 2.115 ug/ml incubated for 24 hrs by crystal violet staining based assay relative to control; type: functional
# Enterococcus faecalis [44] = experiment: Antibiofilm activity against Enterococcus faecalis 16C106 at 4.23 ug/ml incubated for 24 hrs by crystal violet staining based assay relative to control; type: functional
compound,measurement,setting,value
COc1c(/C=C/C(=O)c2ccc(O)cc2)ccc(O)c1CC=C(C)C,IC50,[1],23.4 µM
same,MIC,Staphylococcus aureus [2],6.25 µg/mL
same,MIC,Bacillus subtilis,12.5 µg/mL
same,MIC,Micrococcus luteus,6.25 µg/mL
same,MIC,Escherichia coli [3],> 100 µg/mL
same,MIC,Pseudomonas aeruginosa,> 100 µg/mL
same,IC50,[4],3 µM
same,IC50,[5],7.4 µM
same,IC50,[6],13.9 µM
same,IC50,[7],29.6 µM
COc1c(/C=C/C(=O)c2ccc(O)cc2)ccc(O)c1O,MIC,Staphylococcus aureus [2],100 µg/mL
same,MIC,Bacillus subtilis,10 µg/mL
same,MIC,Micrococcus luteus,50 µg/mL
CC1(C)C=Cc2c(ccc(C(=O)/C=C/c3ccc(O)cc3)c2O)O1,MIC,Staphylococcus aureus [8],4 µg/mL
C=C(C)[C@@H](C)c1cc(/C=C/C(=O)c2ccc(O)cc2)c(OC)cc1O,inhibition (INH),[9],33%
same,inhibition (INH),[10],58%
same,MIC,Staphylococcus aureus [11],2 µg/mL
same,MIC,Staphylococcus aureus [12],2 µg/mL
O=C(/C=C/c1ccc(O)c(O)c1)c1ccc(O)cc1O [BUTEIN],IC50,[13],22 µg/mL
same,IC50,[14],30 µg/mL
same,IC50,[15],10 µM
same,IC50,[16],30 µM
same,MIC,Escherichia coli [17],32 µM
C=CC(C)(C)c1cc(/C=C/C(=O)c2ccc(O)cc2)c(OC)cc1O [LICOAGROCHACONE A],IC50,[1],8 µM
same,MIC,Staphylococcus aureus [2],1.56 µg/mL
same,MIC,Bacillus subtilis,3.13 µg/mL
same,MIC,Micrococcus luteus,1.56 µg/mL
same,MIC,Rhizomucor pusillus,12.5 µg/mL
same,MIC,Escherichia coli [3],> 100 µg/mL
same,MIC,Pseudomonas aeruginosa,> 100 µg/mL
same,IC50,[4],6.2 µM
same,IC50,[5],9.5 µM
same,IC50,[6],18.9 µM
same,IC50,[7],14.8 µM
same,MIC,Staphylococcus aureus [18],4 µg/mL
same,MIC,Staphylococcus aureus [19],4 µg/mL
same,MIC,Candida albicans [20],12.5 µg/mL
same,MIC,Candida albicans [21],6.25 µg/mL
same,inhibition at 100 µg/mL,Candida albicans [22],79%
same,inhibition at 100 µg/mL,Candida albicans [23],100%
same,MIC,Staphylococcus aureus [24],4 µg/mL
same,inhibition (INH),[25],95%
same,inhibition (INH),[26],93%
same,MIC,Streptococcus suis [27],4 µg/mL
same,inhibition (INH),[28],63%
same,inhibition (INH),[29],81%
same,inhibition at 0.2 µg/mL,Candida albicans [30],35%
same,inhibition at 2 µg/mL,Candida albicans [31],76%
same,inhibition at 0.2 µg/mL,Candida albicans [32],59%
same,inhibition at 2 µg/mL,Candida albicans [33],81%
same,inhibition at 3 µg/mL,Streptococcus suis [34],30%
same,inhibition at 4 µg/mL,Streptococcus suis [35],60%
same,MIC,Staphylococcus aureus [36],2 µg/mL
same,inhibition at 16 µg/mL,Staphylococcus aureus [37],60%
same,inhibition at 128 µg/mL,Staphylococcus aureus [38],60%
same,MIC,Enterococcus faecalis [39],8.46 µg/mL
same,MIC,Enterococcus faecalis [40],8.46 µg/mL
same,inhibition at 2.115 µg/mL,Enterococcus faecalis [41],50%
same,inhibition at 4.23 µg/mL,Enterococcus faecalis [42],80%
same,inhibition at 2.115 µg/mL,Enterococcus faecalis [43],50%
same,inhibition at 4.23 µg/mL,Enterococcus faecalis [44],85%
COc1c(/C=C/C(=O)c2ccc(O)c(CC=C(C)C)c2)ccc(O)c1O [LICOCHALCONE D],MIC,Staphylococcus aureus [2],50 µg/mL
same,MIC,Bacillus subtilis,50 µg/mL
same,MIC,Micrococcus luteus,50 µg/mL
